Measured values from ChEMBL document CHEMBL5727862, “Inhibitors of plasma kallikrein and uses thereof” (2020).

Assay: Inhibitory Activity of Exemplary Compounds against Plasma Kallikrein: Example compounds were evaluated for inhibition of the human activated kallikrein enzyme in two formats of an assay employing a fluorogenic peptide substrate. In one assay format, the concentrations of reagents were as follows: 20 mM Tris pH 7.5, 1 mM EDTA, 150 mM sodium chloride, 0.1% PEG-400, 0.1% Triton X-100, 500 pM activated kallikrein enzyme, 300 uM Pro-Phe-Arg-7-amido-4-methylcoumarin substrate. Prior to reaction initiation with substrate, enzyme and inhibitors were preincubated for 30 min at RT. After initiation with substrate, reactions were incubated for 10 min at RT and fluorescence emission at 460 nm from 380 nm excitation measured with a microplate reader. In another assay format, the concentrations of reagents were as follows: 20 mM Tris pH 7.5, 1 mM EDTA, 150 mM sodium chloride, 0.1% PEG-400, 0.1% Triton X-100, 5 pM activated kallikrein enzyme, 300 uM Pro-Phe-Arg-7-amido-4-methylcoumarin substrate. Prior to reaction initiation with substrate, enzyme and inhibitors were preincubated for 30 min at RT. After initiation with substrate, reactions were incubated for 18 h at RT and fluorescence emission at 460 nm from 380 nm excitation measured with a microplate reader.

Row | SMILES | EC50 [nM]
1 | CCOC(=O)c1cc(C2CC2)cn2cc(Cn3cc(C(=O)NCc4ncn5ccc(Cl)cc45)cn3)nc12 | < 1
2 | O=C(NCc1cn2c(F)c(Cl)ccc2n1)c1cn(Cc2cn3cc(C4CC4)cc(Cc4nnc(C(=O)O)o4)c3n2)nn1 | < 1
3 | CCOC(=O)C1CN(c2cc(C3CC3)cn3cc(Cn4cc(C(=O)NCc5ncn6ccc(Cl)c(F)c56)nn4)nc23)CCO1 (configuration not stated) | < 1
4 | O=C(NCc1cn2c(F)c(Cl)ccc2n1)c1cn(Cc2cn3cc(C4CC4)cc(Cc4nnco4)c3n2)nn1 | < 1
5 | O=C(NCc1ncn2ccc(Cl)c(F)c12)c1cn(Cc2cn3nc(C4CC4)cc(CN4CCCC4)c3n2)nn1 | < 1
6 | CC(C)(C)OC(=O)c1ncc(-c2cc(C3CC3)cn3cc(Cn4cc(C(=O)NCc5ncn6ccc(Cl)c(F)c56)nn4)nc23)s1 | < 1

The remaining lines, values ahead:

Row | EC50 [nM] | SMILES
7 | < 1 | O=C(NCc1ncn2ccc(Cl)c(F)c12)c1cn(Cc2cn3cc(C4CC4)cc(CCl)c3n2)nn1
8 | < 1 | CCOC(=O)c1cc(C2CC2)cn2cc(Cn3cc(C(=O)NCc4ncn5ccc(Cl)c(F)c45)nn3)nc12
9 | < 1 | O=C(OCc1ccccc1)c1cnn(Cc2cn3cc(C4CC4)cc(CO)c3n2)c1
10 | < 1 | O=C(NCc1ncn2ccc(Cl)c(F)c12)c1cn(Cc2cn3cc(C4CC4)ccc3n2)c(C(=O)O)n1
11 | < 1 | CCOC(=O)c1ccn(Cc2cc(C3CC3)cn3cc(Cn4cc(C(=O)NCc5ncn6ccc(Cl)c(F)c56)nn4)nc23)n1
12 | < 1 | CC(c1cn2cc(C3CC3)cc(C3CCC(=O)O3)c2n1)n1cc(C(=O)NCc2ncn3ccc(Cl)c(F)c23)nn1 (configuration not stated)
